Drawing on US20250376461A1, “INDAZOLE DERIVATIVES FOR TREATING TRPM3-MEDIATED DISORDERS” (Katholieke Universiteit Leuven, priority 2022, published 2025), this text covers IC50 for 41 molecules.

Bounds are passed on as bounds.

T1 sequence (J9SQF3 1-1709 isoform J9SQF3-12): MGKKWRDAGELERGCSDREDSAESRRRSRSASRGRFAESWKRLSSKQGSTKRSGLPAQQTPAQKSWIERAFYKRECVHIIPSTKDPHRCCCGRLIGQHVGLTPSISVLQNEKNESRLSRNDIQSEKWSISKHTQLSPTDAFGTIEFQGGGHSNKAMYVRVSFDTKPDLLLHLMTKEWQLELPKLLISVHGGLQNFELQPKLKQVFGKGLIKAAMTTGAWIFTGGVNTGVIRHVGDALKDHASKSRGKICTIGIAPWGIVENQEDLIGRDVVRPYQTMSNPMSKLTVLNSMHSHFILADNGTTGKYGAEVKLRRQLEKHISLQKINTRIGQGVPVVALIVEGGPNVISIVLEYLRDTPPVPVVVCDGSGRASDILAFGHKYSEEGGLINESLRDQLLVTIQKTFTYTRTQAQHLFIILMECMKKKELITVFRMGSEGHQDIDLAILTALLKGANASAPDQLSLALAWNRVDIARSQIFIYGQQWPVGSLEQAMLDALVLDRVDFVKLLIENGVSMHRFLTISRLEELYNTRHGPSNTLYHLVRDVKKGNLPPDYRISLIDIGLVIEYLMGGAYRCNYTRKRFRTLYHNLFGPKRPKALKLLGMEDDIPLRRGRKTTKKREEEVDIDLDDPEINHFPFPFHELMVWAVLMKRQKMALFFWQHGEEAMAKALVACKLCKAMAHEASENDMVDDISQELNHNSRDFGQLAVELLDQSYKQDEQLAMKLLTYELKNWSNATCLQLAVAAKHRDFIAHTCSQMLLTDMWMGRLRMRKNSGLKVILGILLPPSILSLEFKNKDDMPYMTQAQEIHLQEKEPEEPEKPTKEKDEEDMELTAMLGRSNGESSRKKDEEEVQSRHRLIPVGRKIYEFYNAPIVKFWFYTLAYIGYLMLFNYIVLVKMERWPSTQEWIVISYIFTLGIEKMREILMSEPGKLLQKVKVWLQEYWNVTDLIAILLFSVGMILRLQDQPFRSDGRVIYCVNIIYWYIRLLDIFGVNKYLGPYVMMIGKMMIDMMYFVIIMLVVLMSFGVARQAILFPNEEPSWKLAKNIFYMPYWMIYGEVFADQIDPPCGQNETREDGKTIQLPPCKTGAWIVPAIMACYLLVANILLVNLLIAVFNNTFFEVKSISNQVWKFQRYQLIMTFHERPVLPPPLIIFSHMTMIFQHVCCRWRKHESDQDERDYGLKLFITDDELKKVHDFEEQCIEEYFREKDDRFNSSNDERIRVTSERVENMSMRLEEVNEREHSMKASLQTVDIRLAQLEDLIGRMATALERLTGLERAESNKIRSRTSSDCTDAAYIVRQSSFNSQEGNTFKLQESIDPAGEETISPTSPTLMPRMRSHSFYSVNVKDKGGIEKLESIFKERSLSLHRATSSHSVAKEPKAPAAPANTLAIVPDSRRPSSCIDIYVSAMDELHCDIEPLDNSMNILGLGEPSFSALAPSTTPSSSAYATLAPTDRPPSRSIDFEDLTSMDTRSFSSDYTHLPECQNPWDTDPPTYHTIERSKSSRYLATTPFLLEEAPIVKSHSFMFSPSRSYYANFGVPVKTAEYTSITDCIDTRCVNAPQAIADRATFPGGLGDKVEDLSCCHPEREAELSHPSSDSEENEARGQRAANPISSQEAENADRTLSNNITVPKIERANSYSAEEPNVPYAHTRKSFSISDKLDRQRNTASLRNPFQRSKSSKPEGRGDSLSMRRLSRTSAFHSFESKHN

This assay has as its target T1, mouse TRPM3α2 (mTRPM3) ion channel (Mus musculus, UniProt J9SQF3).
T1 construct: expressed in transfected cells; host or cells: flip-in HEK293
In words: TRPM3 ion channel driven Ca2+ uptake, Fluo-4 AM assay, mTRPM3alpha2 overexpressing flip-in HEK293 cells stimulated with pregnenolone sulfate (50 μM). The settings on record: mTRPM3 overexpressing HEK293 cells stimulated with pregnenolone sulfate (50 μM), activity ranges A, B, C. The format is cell-based. As for the experimental part: Monitoring the TRPM3 Ion Channel Driven Ca2+ Uptake.
In order to monitor the inhibition of the mouse TRPM3α2 (mTRPM3) ion channel by the compounds of the invention, a cellular system making use of an mTRPM3alpha2 or hTRPM3 overexpressing cell line (flip-in HEK293) was used. The TRPM3 channel was stimulated/opened with Pregnenolone sulfate (PS) (50 μM) which results in Ca^2+ influx.
For mTRPM3, the intracellular Ca^2+ was measured with a Calcium responsive dye, Fluor-4 AM ester (Invitrogen). Cells were cultured until a confluence of 80-90%, washed with Versene (Invitrogen) and detached from the surface by a short incubation with 0.05% Trypsin (Invitrogen). The trypsination process was stopped by the addition of complete cell culture medium (DMEM, glutamax, 10% FCS, NEAA, Pen-Strep). Cells were collected and resuspended in Krebs buffer without Calcium at RT.
Prior the cell seeding (±2000 cells/well into a black, 384 well plate (Greiner)) the diluted compound was added in the assay plate, together with the PS dissolved in Krebs buffer containing Calcium. […] Directly after cell addition the plates were read on an Envision fluorescence reader (Perkin Elmer) by an Excitation of 485 nm and emission at 535 nm.
Channel inhibition was calculated compared to a non-PS stimulated control versus a condition stimulated with PS (50 μM) with vehicle. The ability of the compounds of the invention to inhibit this activity was determined as: Percentage inhibition=[1−((RFU determined for sample with test compound present−RFU determined for sample with positive control inhibitor) divided by (RFU determined in the presence of vehicle−RFU determined for sample with positive control inhibitor))]*100.
The activities of the Example compounds cpd 001-262 tested are depicted in the table below. All tested compounds show an activity in the Fluo-4 AM assay. The activity ranges A, B and C refer to IC50 values in the Fluo-4 AM assay as follows: “A”: IC50<1 μM; “B”: 1 μM≤IC50≤20 μM and “C”: IC50>20 μM.
The molecule `CN(C)C(=O)C1(NC(=O)c2c3cc(OCc4cccnc4C(F)(F)F)ccc3nn2C)CCOC1` (single isomer, unassigned) [Cpd 186 - En1] displayed a concentration for half-maximal inhibition (IC50) of 1 to 20 µM.

Regarding `CN(C)C(=O)C1(NC(=O)c2c3cc(OCc4cccnc4C(F)(F)F)ccc3nn2C)CCOC1` (single isomer, unassigned) [Cpd 186 - En2], the IC50 fell in the range of 1 to 20 µM.

`Cn1nc2ccc(OCC(F)F)cc2c1C(=O)NC(C)(CO)C(N)=O` (single isomer, unassigned) [Cpd 187 - En1] had an IC50 of more than 20 µM.

Molecule `Cn1nc2ccc(OCC(F)F)cc2c1C(=O)NC(C)(CO)C(N)=O` (single isomer, unassigned) [Cpd 187 - En2] registered a half-inhibitory concentration (IC50) of 1 to 20 µM.

For `CCn1nc2ccc(OCc3ccccn3)cc2c1C(=O)NC(C)(CO)C(N)=O` (single isomer, unassigned) [Cpd 188 - En1, 2-({2-ethyl-5-[(pyridin-2-yl)methoxy]-2H-indazol-3-yl}formamido)-3-hydroxy-2-methylpropanamide], the IC50 lay within 1 to 20 µM.

On to `CCn1nc2ccc(OCc3ccccn3)cc2c1C(=O)NC(C)(CO)C(N)=O` (single isomer, unassigned) [Cpd 188 - En2, 2-({2-ethyl-5-[(pyridin-2-yl)methoxy]-2H-indazol-3-yl}formamido)-3-hydroxy-2-methylpropanamide], for which the IC50 was less than 1 µM.

`Cn1nc2ccc(OCc3cccnc3)cc2c1C(=O)NC(C)(CO)C(N)=O` (single isomer, unassigned) [Cpd 190 - En1] returned an IC50 of 1 to 20 µM.

`Cn1nc2ccc(OCc3cccnc3)cc2c1C(=O)NC(C)(CO)C(N)=O` (single isomer, unassigned) [Cpd 190 - En2]: the IC50 is less than 1 µM.

As to `Cn1nc2ccc(OCc3ccccc3C(F)F)cc2c1C(=O)NC(C)(CO)C(N)=O` (single isomer, unassigned) [Cpd 191 - En1], the half-maximal inhibitory concentration (IC50) was less than 1 µM.

`Cn1nc2ccc(OCc3ccccc3C(F)F)cc2c1C(=O)NC(C)(CO)C(N)=O` (single isomer, unassigned) [Cpd 191 - En2]: the IC50 was less than 1 µM.

`CN(C)C(=O)C(C)(CO)NC(=O)c1c2cc(OCc3cccnc3C(F)(F)F)ccc2nn1C` (single isomer, unassigned) [Cpd 193 - En1, 3-hydroxy-N,N,2-trimethyl-2-[(2-methyl-5-{[2-(trifluoromethyl)pyridin-3-yl]methoxy}-2H-indazol-3-yl)formamido]propanamide] gave a half-maximal inhibitory concentration (IC50) of 1 to 20 µM.

In turn, `CN(C)C(=O)C(C)(CO)NC(=O)c1c2cc(OCc3cccnc3C(F)(F)F)ccc2nn1C` (single isomer, unassigned) [Cpd 193 - En2, 3-hydroxy-N,N,2-trimethyl-2-[(2-methyl-5-{[2-(trifluoromethyl)pyridin-3-yl]methoxy}-2H-indazol-3-yl)formamido]propanamide] returned a 50% inhibitory concentration (IC50) of more than 20 µM.

Molecule `Cn1nc2ccc(OCc3ccccc3F)cc2c1C(=O)NC(C)(CO)C(N)=O` (single isomer, unassigned) [Cpd 194 - En1] had an IC50 of less than 1 µM.

Regarding `Cn1nc2ccc(OCc3ccccc3F)cc2c1C(=O)NC(C)(CO)C(N)=O` (single isomer, unassigned) [Cpd 194 - En2], the IC50 is less than 1 µM.

Regarding `Cc1ncc(COc2ccc3nn(C(C)C)c(C(=O)NC(C)(CO)C(N)=O)c3c2)s1` (single isomer, unassigned) [Cpd 195 - En1], the half-inhibitory concentration (IC50) was more than 20 µM.

Consider `Cc1ncc(COc2ccc3nn(C(C)C)c(C(=O)NC(C)(CO)C(N)=O)c3c2)s1` (single isomer, unassigned) [Cpd 195 - En2], for which the concentration for half-maximal inhibition (IC50) is less than 1 µM.

Molecule `Cn1nc2ccc(OCc3ccccn3)cc2c1C(=O)NC(C)(CO)CC(F)F` (single isomer, unassigned) [Cpd 201 - En1, N-(4,4-difluoro-1-hydroxy-2-methylbutan-2-yl)-2-methyl-5-[(pyridin-2-yl)methoxy]-2H-indazole-3-carboxamide] came in with an IC50 of less than 1 µM.

For the molecule `Cn1nc2ccc(OCc3ccccn3)cc2c1C(=O)NC(C)(CO)CC(F)F` (single isomer, unassigned) [Cpd 201 - En2, N-(4,4-difluoro-1-hydroxy-2-methylbutan-2-yl)-2-methyl-5-[(pyridin-2-yl)methoxy]-2H-indazole-3-carboxamide], the IC50 is less than 1 µM.

In turn, `Cn1nc2ccc(OCc3cccnc3C(F)(F)F)cc2c1C(=O)NC(C)(CO)CC(F)F` (single isomer, unassigned) [Cpd 202 - En1] returned an IC50 of less than 1 µM.

As to `Cn1nc2ccc(OCc3cccnc3C(F)(F)F)cc2c1C(=O)NC(C)(CO)CC(F)F` (single isomer, unassigned) [Cpd 202 - En2], the IC50 was less than 1 µM.

As for `Cn1nc2ccc(OCc3ccccc3F)cc2c1C(=O)NC(C)(CO)CC(F)F` (single isomer, unassigned) [Cpd 203 - En1], the IC50 was less than 1 µM.

As to `Cn1nc2ccc(OCc3ccccc3F)cc2c1C(=O)NC(C)(CO)CC(F)F` (single isomer, unassigned) [Cpd 203 - En2], the IC50 is less than 1 µM.

On to `Cc1ncsc1COc1ccc2nn(C)c(C(=O)NC3CNCCC3(F)F)c2c1` (single isomer, unassigned) [Cpd 211 - En1, N-(4,4-difluoropiperidin-3-yl)-2-methyl-5-[(4-methyl-1,3-thiazol-5-yl)methoxy]-2H-indazole-3-carboxamide], for which the IC50 is 1 to 20 µM.

With `Cc1ncsc1COc1ccc2nn(C)c(C(=O)NC3CNCCC3(F)F)c2c1` (single isomer, unassigned) [Cpd 211 - En2, N-(4,4-difluoropiperidin-3-yl)-2-methyl-5-[(4-methyl-1,3-thiazol-5-yl)methoxy]-2H-indazole-3-carboxamide], the IC50 was less than 1 µM.

Take `Cn1nc2ccc(OCc3ccccn3)cc2c1C(=O)NC1CNCCC1(F)F` (single isomer, unassigned) [Cpd 212 - En1, N-(4,4-difluoropiperidin-3-yl)-2-methyl-5-[(pyridin-2-yl)methoxy]-2H-indazole-3-carboxamide]: the IC50 was 1 to 20 µM.

`Cn1nc2ccc(OCc3ccccn3)cc2c1C(=O)NC1CNCCC1(F)F` (single isomer, unassigned) [Cpd 212 - En2, N-(4,4-difluoropiperidin-3-yl)-2-methyl-5-[(pyridin-2-yl)methoxy]-2H-indazole-3-carboxamide] gave a 50% inhibitory concentration (IC50) of more than 20 µM.

As to `Cc1ncsc1COc1ccc2nn(C)c(C(=O)NC3CNCC(F)(F)C3)c2c1` (single isomer, unassigned) [Cpd 213 - En1], the IC50 was in the range of 1 to 20 µM.

In turn, `Cc1ncsc1COc1ccc2nn(C)c(C(=O)NC3CNCC(F)(F)C3)c2c1` (single isomer, unassigned) [Cpd 213 - En2] displayed a half-maximal inhibitory concentration (IC50) of more than 20 µM.

In the case of `Cn1nc2ccc(OCc3ccccn3)cc2c1C(=O)NC1CNCC(F)(F)C1` (single isomer, unassigned) [Cpd 214 - En1], the IC50 was more than 20 µM.

Molecule `Cn1nc2ccc(OCc3ccccn3)cc2c1C(=O)NC1CNCC(F)(F)C1` (single isomer, unassigned) [Cpd 214 - En2] had an IC50 of 1 to 20 µM.

As to `Cc1ncsc1COc1ccc2nn(C)c(C(=O)NC3CCNC3)c2c1` (single isomer, unassigned) [Cpd 215 - En1], the IC50 is more than 20 µM.

With `Cc1ncsc1COc1ccc2nn(C)c(C(=O)NC3CCNC3)c2c1` (single isomer, unassigned) [Cpd 215 - En2], the half-inhibitory concentration (IC50) fell in the range of 1 to 20 µM.

With `Cn1nc2ccc(OCc3ccccn3)cc2c1C(=O)NC1CCNC1` (single isomer, unassigned) [Cpd 216 - En1], the IC50 is more than 20 µM.

`Cn1nc2ccc(OCc3ccccn3)cc2c1C(=O)NC1CCNC1` (single isomer, unassigned) [Cpd 216 - En2] yielded a concentration for half-maximal inhibition (IC50) of 1 to 20 µM.

In turn, `Cn1nc2ccc(OCc3ccccn3)cc2c1C(=O)NC(CO)c1ccc(F)cc1` (single isomer, unassigned) [Cpd 220 - En1] had a concentration for half-maximal inhibition (IC50) of more than 20 µM.

In the case of `Cn1nc2ccc(OCc3ccccn3)cc2c1C(=O)NC(CO)c1ccc(F)cc1` (single isomer, unassigned) [Cpd 220 - En2], the 50% inhibitory concentration (IC50) is more than 20 µM.

In turn, `Cn1nc2ccc(OCc3ccccn3)cc2c1C(=O)NC(CO)c1ccccn1` (single isomer, unassigned) [Cpd 221 - En1] returned a half-maximal inhibitory concentration (IC50) of 1 to 20 µM.

Consider `Cn1nc2ccc(OCc3ccccn3)cc2c1C(=O)NC(CO)c1ccccn1` (single isomer, unassigned) [Cpd 221 - En2], for which the IC50 was 1 to 20 µM.

Regarding `Cn1nc2ccc(OCc3ccccn3)cc2c1C(=O)NC(CCO)c1ccc(F)cc1` (single isomer, unassigned) [Cpd 223 - En1], the IC50 is more than 20 µM.

As for `Cn1nc2ccc(OCc3ccccn3)cc2c1C(=O)NC(CCO)c1ccc(F)cc1` (single isomer, unassigned) [Cpd 223 - En2], the IC50 was more than 20 µM.

Regarding `Cn1nc2ccc(OCc3ccccn3)cc2c1C(=O)NC(CO)CC(F)(F)F` (single isomer, unassigned) [Cpd 226-En1], the IC50 is less than 1 µM.
